From US20250205270A1, “ANTIBODY-DRUG CONJUGATE PRECURSORS COMPRISING A CYCLIC DINUCLEOTIDE” (TAKEDA PHARMACEUTICAL COMPANY LIMITED, priority 2016, published 2025)
Where a name gives a salt, the structure may show the parent alone. Read-outs that look alike come from different tables or passages of the source.

What was measured:
[1] = test system: phosphorylated IRF3 protein in FaDu cell; assay: Phosphorylated IRF3 protein detection in FaDu cell; assay type: cell-based, human; settings: at 30 μM; 6 hr; 2′,3′-cGAMP 30 μM = 100%
Method: Human larynx cancer cell line FaDu cell (ATCC) was seeded, the medium was replaced with serum free medium one day after the seeding. After the replacement, the cell was cultured for one day, and to the cell were added the natural ligand 2′,3′-cGAMIP (the final concentration; 30 μM) and test compound (the final concentration; 15 μM or 30 μM). 6 hr after the addition, the cell was washed with PBS, the cell extract was prepared, and the phosphorylated IRF3 protein was detected by ELISA method or Western blotting method. The IRF3 protein phosphorylation activity of the test compound was calculated when the value in the sample with adding the natural ligand 2′,3′-cGAMP at the final concentration of 30 μM was considered as 100%.

WT STING = WT STING (Homo sapiens (Human), UniProt Q86WV6, H232R); assay type: cell-based
Sequence of WT STING (Q86WV6 whole entry H232R): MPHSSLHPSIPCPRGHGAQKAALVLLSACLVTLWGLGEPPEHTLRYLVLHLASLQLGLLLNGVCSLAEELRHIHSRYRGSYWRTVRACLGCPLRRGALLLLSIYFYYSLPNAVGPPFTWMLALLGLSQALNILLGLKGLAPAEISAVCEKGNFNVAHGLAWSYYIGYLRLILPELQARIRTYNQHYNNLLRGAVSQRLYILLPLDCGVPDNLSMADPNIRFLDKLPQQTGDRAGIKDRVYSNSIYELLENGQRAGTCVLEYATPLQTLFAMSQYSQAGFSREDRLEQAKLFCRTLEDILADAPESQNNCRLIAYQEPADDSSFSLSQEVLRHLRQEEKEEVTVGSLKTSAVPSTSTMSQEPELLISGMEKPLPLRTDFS

[2] = test system: THP1-Dual cells (ISG54 promoter Lucia luciferase reporter); assay: THP-1 Dual Lucia reporter gene assay; assay type: cell-based, human; settings: 20 hours incubation, read-out: THP-1 Dual cell EC50 (μM) Reporter
Method: THP1-Dual™ cells (InvivoGen #thpd-nfis) were derived from the human THP-1 monocyte cell line by stable integration of the Lucia luciferase gene, a secreted luciferase reporter gene, under the control of an ISG54 (interferon-stimulated gene) minimal promoter in conjunction with five interferon (IFN)-stimulated response elements. On the day of experiment, the cells were plated to a black, 384-well plate (Corning 356697) at 7500 cells/25 μL per well density in growth media (RPMI 1640, 2 mM L-glutamine, 25 mM HEPES, 10% heat-inactivated fetal bovine serum, 100 μg/mL Normocin™, 100 U/mL-100 μg/mL Pen-Strep, 10 μg/mL of blasticidin, and 100 μg/mL of Zeocin). The cell plates were dosed with 62.5 nL of the testing compounds, and then incubated at 37° C. for 20 hours. At the end of the incubation, 15 μL/well of the QUANTI-Luc™ (InvivoGen #rep-qlc1) were added, and luminescence was measured immediately using the LeadSeeker.

[3] = Human plasma stability assay; assay type: in vitro ADME; settings: 37° C., 0-24 hours, LC/MS/MS
Method: The compound was incubated in heparinized human plasma at 37° C. for 0, 1, 2, 4, 8 and 24 hours, and the change in compound concentration was measured by LC/MS/MS method. The elimination rate constant (=k(/h)) was calculated based on the fitted curve assuming the exponential decrease of concentration as follows; concentration at time x=initial concentration*exp(−k*x).

[4] = test system: colon carcinoma CT-26 syngeneic mice model; assay: Syngeneic tumor model, anti-tumor effect, CT-26; assay type: in vivo, mouse; settings: Balb/C mice; intravenous, every 3 days, 3 times; Ex3a 30 mg/kg, Ex14 1.0 mg/kg
Method: (§1) Ex14 and Ex3a were tested in syngeneic tumor models in mice. […] See FIG. 8 and FIG. 9 for the anti-tumor effect colon carcinoma CT-26 syngeneic mice model, and FIG. 10 and FIG. 11 for the anti-tumor effect in the […] B16F10 syngeneic mice model.
(§2) 8×10^4 B16F10 and 2×10^5 CT-26 mouse tumor cells were subcutaneously implanted in the flank of female C57BL/6 (B16F10) and Balb/C (CT-26) mice (n=7 per group). Vehicle (1×PBS), compound Ex3a (30 mg/kg) or Ex14 (1.0 mg/kg) were intravenously administered (final volume of 100 μL) to tumor-bearing mice once the tumor volume has reached 100 mm^3 (Day 0). Vehicle, Ex3a or Ex14 were given every 3 days for a total of 3 doses (q3dx3). Tumor and body weight measurements were taken three times per week using vernier calipers and mettler scale, respectively. Tumor volumes were determined by multiplying the square of the width (‘W’), measured along the short axis of the tumor, by one-half the length (‘L’) measured along the […]

[5] = test system: B16F10 syngeneic mice model; assay: Syngeneic tumor model, anti-tumor effect, B16F10; assay type: in vivo, mouse; settings: C57BL/6 mice; intravenous, every 3 days, 3 times; Ex3a 30 mg/kg, Ex14 1.0 mg/kg
Method: as §1, §2

| Structure (SMILES) | activity level of test compound, IRF3 protein phosphorylation test [1] | activity level against WT STING of test compound (30 μM) (WT STING) | Human plasma stability (/h), elimination rate constant k [3] | also measured |
| --- | --- | --- | --- | --- |
| Nc1ncnc2c1ncn2[C@@H]1O[C@@H]2COP(=O)(O)O[C@@H]3[C@H](O)[C@@H](COP(=O)(O)O[C@H]2[C@H]1F)O[C@H]3n1cc(F)c2c(=O)[nH]cnc21 [Example 1, 7-((5R,7R,8R,12aR,14R,15R,15aR,16R)-14-(6-amino-9H-purin-9-yl)-15-fluoro-2,10,16-trihydroxy-2,10-dioxidooctahydro-12H-5,8-methanofuro[3,2-1][1,3,6,9,11,2,10]pentaoxadiphosphacyclotetradecin-7-yl)-5-fluoro-3,7-dihydro-4H-pyrrolo[2,3-d]pyrimidin-4-one di-triethylamine Salt] | 468.8% at 30 μM | – | – | – |
| Nc1ncnc2c1ncn2[C@@H]1O[C@@H]2COP(=O)(O)O[C@@H]3[C@H](O)[C@@H](COP(=O)(S)O[C@H]2[C@H]1F)O[C@H]3n1cc(F)c2c(=O)[nH]cnc21 (stereo partly drawn) [Example 2, 7-((5R,7R,8R,12aR,14R,15R,15aR,16R)-14-(6-amino-9H-purin-9-yl)-15-fluoro-10,16-dihydroxy-2,10-dioxido-2-sulfanyloctahydro-12H-5,8-methanofuro[3,2-1][1,3,6,9,11,2,10]pentaoxadiphosphacyclotetradecin-7-yl)-5-fluoro-3,7-dihydro-4H-pyrrolo[2,3-d]pyrimidin-4-one di-triethylamine Salt (Optical Isomer)] | 88.7% at 30 μM | 112% | – | – |
| Nc1ncnc2c1ncn2[C@@H]1O[C@@H]2COP(=O)(O)O[C@@H]3[C@H](O)[C@@H](COP(=O)(S)O[C@H]2[C@H]1F)O[C@H]3n1cc(F)c2c(=O)[nH]cnc21 (stereo partly drawn) [Example 3, 7-((2R,5R,7R,8R,12aR,14R,15R,15aR,16R)-14-(6-amino-9H-purin-9-yl)-15-fluoro-10,16-dihydroxy-2,10-dioxido-2-sulfanyloctahydro-12H-5,8-methanofuro[3,2-1][1,3,6,9,11,2,10]pentaoxadiphosphacyclotetradecin-7-yl)-5-fluoro-3,7-dihydro-4H-pyrrolo[2,3-d]pyrimidin-4-one 1.7 Triethylamine Salt] | 464.6% at 30 μM | – | – | – |
| Nc1ncnc2c1ncn2[C@@H]1O[C@@H]2COP(=O)(O)O[C@@H]3[C@H](O)[C@@H](COP(=O)(S)O[C@H]2[C@H]1F)O[C@H]3n1cc(F)c2c(=O)[nH]cnc21 (stereo partly drawn) [Example 3a, 7-((2R,5R,7R,8R,12aR,14R,15R,15aR,16R)-14-(6-amino-9H-purin-9-yl)-15-fluoro-10,16-dihydroxy-2,10-dioxido-2-sulfanyloctahydro-12H-5,8-methanofuro[3,2-1][1,3,6,9,11,2,10]pentaoxadiphosphacyclotetradecin-7-yl)-5-fluoro-3,7-dihydro-4H-pyrrolo[2,3-d]pyrimidin-4-one Disodium Salt] | – | – | 0.58 h⁻¹ | EC50 (WT STING; with digitonin, read-out: STING-293T cell EC50 (μM) Reporter with digitonin (B)): 0.13 µM; EC50 ([2]; Homo sapiens, THP1-Dual): 5.6 µM; anti-tumor effect (tumor volume) [4]: anti-tumor effects were observed; anti-tumor effect (tumor volume) [5]: anti-tumor effects were observed |
| Nc1ncnc2c1ncn2[C@@H]1O[C@@H]2COP(=O)(S)O[C@@H]3[C@H](O)[C@@H](COP(=O)(S)O[C@H]2[C@H]1O)O[C@H]3n1cc(F)c2c(=O)[nH]cnc21 (stereo partly drawn) [Example 5, 7-((5R,7R,8R,12aR,14R,15R,15aS,16R)-14-(6-amino-9H-purin-9-yl)-15,16-dihydroxy-2,10-dioxido-2,10-disulfanyloctahydro-12H-5,8-methanofuro[3,2-1][1,3,6,9,11,2,10]pentaoxadiphosphacyclotetradecin-7-yl)-5-fluoro-3,7-dihydro-4H-pyrrolo[2,3-d]pyrimidin-4-one di-triethylamine Salt (Optical Isomer)] | 117.4% at 30 μM | – | <0.01 h⁻¹ | – |
| Nc1nc2c(ncn2[C@@H]2O[C@@H]3COP(=O)(O)O[C@H]4[C@@H](O)[C@H](c5cnn6c(N)ncnc56)O[C@@H]4COP(=O)(O)O[C@@H]2[C@@H]3O)c(=O)[nH]1 [Example 13, 2-amino-9-((5R,7R,8R,12aR,14S,15S,15aS,16R)-14-(4-aminopyrazolo[1,5-a][1,3,5]triazin-8-yl)-2,10,15,16-tetrahydroxy-2,10-dioxidooctahydro-12H-5,8-methanofuro[3,2-1][1,3,6,9,11,2,10]pentaoxadiphosphacyclotetradecin-7-yl)-1,9-dihydro-6H-purin-6-one di-triethylamine Salt] | – | 99% | – | – |
| Nc1ncnc2c1ncn2[C@@H]1O[C@@H]2COP(=O)(S)O[C@@H]3[C@H](O)[C@@H](COP(=O)(S)O[C@H]2[C@H]1F)O[C@H]3n1cc(F)c2c(=O)[nH]cnc21 (stereo partly drawn) [Example 14, 7-((2R,5R,7R,8R,10R,12aR,14R,15R,15aR,16R)-14-(6-amino-9H-purin-9-yl)-15-fluoro-16-hydroxy-2,10-dioxido-2,10-disulfanyloctahydro-12H-5,8-methanofuro[3,2-1][1,3,6,9,11,2,10]pentaoxadiphosphacyclotetradecin-7-yl)-5-fluoro-3,7-dihydro-4H-pyrrolo[2,3-d]pyrimidin-4-one Disodium Salt] | – | – | <0.01 h⁻¹ | anti-tumor effect (tumor volume) [4]: anti-tumor effects were observed; anti-tumor effect (tumor volume) [5]: anti-tumor effects were observed |
| Nc1ncnc2c1ncn2[C@@H]1O[C@@]23CO[C@@H]1[C@@H]2OP(=O)(S)OC[C@H]1O[C@@H](n2cc(F)c4c(=O)[nH]cnc42)[C@H](OP(=O)(O)OC3)[C@@H]1O (stereo partly drawn) [Example 17, 7-((5R,7R,8R,12aR,14R,15R,15aS,18R)-14-(6-amino-9H-purin-9-yl)-10,18-dihydroxy-2,10-dioxido-2-sulfanylhexahydro-14H-15,12a-(epoxymethano)-5,8-methanofuro[3,2-1][1,3,6,9,11,2,10]pentaoxadiphosphacyclotetradecin-7(12H)-yl)-5-fluoro-3,7-dihydro-4H-pyrrolo[2,3-d]pyrimidin-4-one di-triethylamine Salt] | – | 110% | – | – |
| Nc1nc2c(ncn2[C@@H]2O[C@@H]3COP(=O)(O)O[C@@H]4[C@H](O)[C@@H](COP(=O)(O)O[C@H]3[C@H]2F)O[C@H]4n2cc(F)c3c(=O)[nH]cnc32)c(=O)[nH]1 [Example 19, 2-amino-9-((5R,7R,8R,12aR,14R,15R,15aR,16R)-15-fluoro-7-(5-fluoro-4-oxo-3,4-dihydro-7H-pyrrolo[2,3-d]pyrimidin-7-yl)-2,10,16-trihydroxy-2,10-dioxidooctahydro-12H-5,8-methanofuro[3,2-1][1,3,6,9,11,2,10]pentaoxadiphosphacyclotetradecin-14-yl)-1,9-dihydro-6H-purin-6-one di-triethylamine Salt] | – | 101% | – | – |
| Nc1nc2c(ncn2[C@@H]2O[C@@H]3COP(=O)(O)O[C@H]4[C@@H](O)[C@H](n5cnc6c(N)ncnc65)O[C@@H]4COP(=O)(O)O[C@@H]2[C@@H]3O)c(=O)[nH]1 [cGAMP, 2′,3′-cGAMP, reference compound] | – | – | 1.39 h⁻¹ | EC50 [2]: 18 µM |
